Measured values as given in patent US6710075B2, “Therapeutic compounds and methods” (The Government of the State of Sarawak, Malaysia, priority 2000, dated 2004).
Where two headings read alike, the source gives them in different places.

Columns and labels:
[1] = tested on: Intercellular Adhesion Molecule-1 (ICAM-1); test: IL-1-induced ICAM-1 surface expression by A549 cells (Delfia); type: cell-based, human; conditions: 24 hours, read-out: IC50 ICAM-1 Production
From the text: (§1) (a) Compounds A and B were identified from a bark sample of Aglaia leptantha through their ability to inhibit production of Tumour Necrosis Factor-α (TNF-α) by THP-1 human promonocytic leukemia cells (Tsuchiya, et al, Int. J. Cancer, 1980, 26(2):171-6) activated with lipopolysaccharide (LPS). Table 4 summarises the results comparing the activity of Compounds A and B for inhibition of TNF-α production to their effects on general cell metabolism measured using WST-1 reduction, DNA synthesis and protein synthesis assays for THP-1 cells. […] For comparison, the effects of Compounds A and B on A549 lung epithelial carcinoma cells (Leiber et al, Int. J. Cancer, 1976, 17(1)-62-70) were also measured and the data is also included in Table 4.

A549 cells [2] = test: Senescence-associated β-galactosidase (SA-β-gal) activity staining; type: cell-based, human; conditions: A549, 10-50 nM, 10 days
Experimental: A549 cells were seeded at 10,000 cell/well in 6 well plates in the presence or absence of varying concentrations of Compound A (10-50 nM) or 250 nM doxorubicin for 10 days prior to their processing and staining overnight for senescence-associated β-galactosidase activity as described previously (Dimri et al., 1995, Proc Natl Acad Sci USA 1995 92(20):9363-7). […] PC, phase contrast microscopy. BF, bright field microscopy Magnification×200.
This was evaluated further by measuring senescence-associated β-galactosidase (SA-β-gal) activity, a biomarker previously described to correlate well with senescence of human cells (Dimri et al., Proc Natl Acad Sci USA 1995 92(20):9363-7). […] Therefore, in addition to Compound A A549 cells were also treated with doxorubicin as an experimental control.

NCI-H460 = test: NCI in vitro anticancer drug discovery screen (sulforhodamine B); type: cell-based; conditions: Homo sapiens, NCI-H460, lung, 48 hr
Experimental: (§2) (c) Testing of Compound A against a much larger cell line panel in the NCI in vitro anticancer screen (Table 7) confirmed the results described above. […] Consistent with the data in Table 5 the cytotoxic effects measured after 2 days of culture were more varied with LC50 values ranging from 10 nM for COLO-205 colon tumour cells to ˜90 μM for 786-0 renal tumour cells.

NCI-H226 = test: as above; type: cell-based; conditions: Homo sapiens, NCI-H226, lung, 48 hr
Experimental: as §2

SK-MEL-2 = test: as above; type: cell-based; conditions: Homo sapiens, SK-MEL-2, melanoma, 48 hr
Experimental: as §2

A549 cells [3] = test: Protein synthesis, [14C]-leucine uptake, A549 cells; type: cell-based, human; conditions: Homo sapiens, A549, 72 h
From the text: as §1

A549 cells [4] = test: Effect on cell cycle arrest and cell death induced by anti-cancer agents, DNA content analysis; type: cell-based
Experimental: A549 cells in 6 well plates were cultured for 3 days in the presence or absence of 10 nM Compound A together with 0.1 μM camptothecin, 10 μM vinblastin, 1 μM paclitaxel or 1 μM staurosporine as indicated. The cells were then collected and fixed in 70% ethanol prior to staining with propidium iodide and DNA content determined by flow cytometry. The numbers indicate the % of cells in the various cell cycle phases relative to all cells with ≧2N DNA content and also the % dead cells (ie. subdiploid ≦2N cells) to the left of the dotted marker that arose during the culture period.
This was examined in more detail using DNA content analysis to specifically measure cell cycle progression and cell death. In this experiment in addition to camptothecin and paclitaxel cells were also treated with vinblastin (another microtubule inhibitor) (Sorger et al., 1997, supra) and staurosporine (a kinase inhibitor) (Gescher, Crit Rev Oncol Hematol., 2000, 34(2):127-35).

A549 cells [5] = test: Reversibility of cytostatic effect in A549 cells after removal of compound; type: cell-based, human; conditions: A549, 10 nM for 5 days, then 4 days without compound
Experimental: A549 cells were seeded at ˜10,000 cells/well and cultured in the presence of the indicted concentrations of Compound A or paclitaxel and the viable cell numbers determined by haemocytometer counting of trypan blue stained cells at the various times. On day 5 some of the cells were washed, resuspended in fresh medium lacking the various treatments and cultured for another 4 days prior to counting.
The reversibility of the effects of Compound A was determined. For this, A549 cells remained untreated or were cultured in the presence of various concentrations of Compound A or with paclitaxel for 5 days prior to removal of the compounds and the cells cultured for a further 4 days prior to determining cell number (FIG. 6). […] The effects of treatments which were deleterious to the cells, such as higher concentrations of Compound A or the presence of paclitaxel, were not reversed upon their removal.

THP-1 = test: Cytotoxic activity, sub-diploid DNA content by flow cytometry (propidium iodide); type: cell-based, human; conditions: Homo sapiens, THP-1, 72 h, THP-1, 3 days; read-out: LC50 (3 day cultures)
Experimental: (§3) (b) Compound A was assessed for cytotoxic and cytostatic activity against a panel of cell lines derived from a variety of human tumour types in addition to THP-1 and A549 cells (Table 5). These included K562 leukemic cells (Lozzio and Lozzio, 1975, Blood 45:321-34), PC3 prostate tumour cells (Kaighn et al., 1979, Invest. Urol. 17:16-23) and SF268 glioblastoma cells (Westphal et al, 1985, Biochem. Biophys. Res. Commun., 132:284-9). […] However, the cytotoxic potency of Compound A increased dramatically after 6 days of culture for the K562, A549 and SF268 cells.

PC3 = test: as above; type: cell-based, human; conditions: Homo sapiens
Experimental: as §3

K562 = test: as above; type: cell-based, human
Experimental: as §3

A549 = test: as above; type: cell-based, human
Experimental: as §3

SF268 = test: as above; type: cell-based, human; conditions: Homo sapiens, SF-268, 72 h, SF268, 3 days; read-out: LC50 (3 day cultures)
Experimental: as §3

[6] = read-out: LC50 (the source's name)

**Q.** How did the IC50 [1] turn out when `COC(=O)[C@H]1[C@@H](O)[C@@]2(O)c3c(OC)cc(OC4OC(C(O)CO)COC4OC)cc3O[C@@]2(c2ccc(OC)cc2)[C@@H]1c1ccccc1` (single isomer, unassigned) [Compound A] was run?
**A.** Its IC50 is 2 µM.

**Q.** What about the SA-β-gal activity (A549 cells [2]) of the same compound?
**A.** The SA-β-gal activity was “failed to induce SA-β-gal activity”.

**Q.** And the GI50 (NCI-H460)?
**A.** Its GI50 is less than 0.01 µM.

**Q.** What about the CC50 (NCI-H460; [6]) of the same compound?
**A.** The CC50 was 38 µM.

**Q.** What about the GI50 (NCI-H226) of the same compound?
**A.** The GI50 was less than 0.01 µM.

**Q.** And the CC50 (NCI-H226; [6])?
**A.** Its CC50 is 0.193 µM.

**Q.** And the GI50 (SK-MEL-2)?
**A.** Its GI50 is less than 0.01 µM.

**Q.** What about the CC50 (SK-MEL-2; [6]) of the same compound?
**A.** Its CC50 is 19.1 µM.

**Q.** And the IC50 (A549 cells [3])?
**A.** Its IC50 is 0.02 µM.

**Q.** And the “cell cycle distribution and cell death” value (A549 cells [4]; A549, 10 nM Compound A alone, three days)?
**A.** Its value is “a minor decrease in cells in G0/G1 with a slight increase in G2/M phase cells with no detectable increase in cell death”.

**Q.** What about the “effect on cytotoxicity of staurosporine” value (A549 cells [4]; A549, 10 nM Compound A with 1 μM staurosporine, 3 days) of the same compound?
**A.** Its value is “little effect on the cytotoxic effects of staurosporine”.

**Q.** And the “effect on cell cycle arrest and cytotoxicity of camptothecin, vinblastin and paclitaxel” value (A549 cells [4]; A549, 10 nM Compound A, 3 days)?
**A.** Its value is “prevented their characteristic cell cycle arrest and significantly inhibited their cytotoxic effects”.

**Q.** And the “cell number after removal of compound” value (A549 cells [5])?
**A.** Its value is “over a five-fold increase in cell number”.

**Q.** And the “population doublings after removal of compound” value (A549 cells [5])?
**A.** The value was 2-3.

**Q.** What about the CC50 (THP-1) of the same compound?
**A.** The CC50 was 0.036 µM.

**Q.** And the CC50 (PC3; PC-3, 72 h, PC3, 3 days, read-out: LC50 (3 day cultures))?
**A.** The CC50 was 0.018 µM.

**Q.** What about the CC50 (PC3; PC-3, 144 h, PC3, 6 days, read-out: LC50 (6 day cultures)) of the same compound?
**A.** Its CC50 is 0.012 µM.

**Q.** And the CC50 (K562; Homo sapiens, K562, 72 h, K562, 3 days, read-out: LC50 (3 day cultures))?
**A.** The CC50 was greater than 1 µM.

**Q.** What about the CC50 (K562; Homo sapiens, K562, 144 h, K562, 6 days, read-out: LC50 (6 day cultures)) of the same compound?
**A.** The CC50 was 0.01 µM.

**Q.** And the CC50 (K562; K562, 6 days, read-out: LC50 (6 day cultures))?
**A.** Its CC50 is 0.012 µM.

**Q.** What about the CC50 (A549; A549, 6 days, read-out: LC50 (6 day cultures)) of the same compound?
**A.** Its CC50 is 0.015 µM.

**Q.** And the CC50 (A549; Homo sapiens, A549, 72 h, A549, 3 days, read-out: LC50 (3 day cultures))?
**A.** Its CC50 is 0.914 µM.

**Q.** What about the CC50 (A549; Homo sapiens, A549, 144 h, A549, 6 days, read-out: LC50 (6 day cultures)) of the same compound?
**A.** The CC50 was 0.021 µM.

**Q.** And the CC50 (SF268)?
**A.** Its CC50 is 0.461 µM.
